# Laboratory results published in patent US20020051978A1, “Methods and compositions for the identification, assessment, prevention and therapy of human cancers” (priority 2000, published 2002).
# Read-outs that look alike come from different tables or passages of the source.
# Columns and labels:
# [1] = system: 60 cancer cell lines (NCI 60 cancer cell line series); assay: NCI-DTP in vitro cancer screen, sulforhodamine B (SRB) growth inhibition, 48 hour exposure; format: cell-based, human; design: key to sensitivity class Ovarian OVCAR-8 CL6005 / sensitivity class Ovarian SK-OV-3 CL6011 / sensitivity class Prostate DU-145 CL11003 / sensitivity class NSCLC NCI-H522 CL1003 / sensitivity class Ovarian IGROV1 CL6010 / sensitivity class Ovarian OVCAR-4 CL6002 / sensitivity class Prostate PC-3(I) CL11001 / sensitivity class Renal A498 CL9013 / sensitivity class Renal SN12C CL9008: sensitivity class: 1 = Low, 2 = Medium, 3 = High
# Outline: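 Sixty NCI-DTP cancer lines plated at line-specific densities, dosed on day 1 in duplicate with 5 concentrations at ten-fold intervals. After 48 h exposure, cell mass read by SRB staining; GI50 (50% growth inhibition) taken from dose-response curves and expressed as -log GI50.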
# [2] = system: 60 cancer cell lines (NCI 60 cancer cell line series); details: cited from earlier work
compound,measurement,setting,value
COc1cc([C@@H]2c3cc4c(cc3[C@@H](O[C@@H]3O[C@@H]5CO[C@@H](c6cccs6)O[C@H]5[C@H](O)[C@H]3O)[C@H]3COC(=O)[C@H]23)OCO4)cc(OC)c1O [Teniposide],"classification of cell line as Low(1), Medium(2) or High(3) sensitivity to compound",[1]; Breast BT-549 (CL5013),2
same,"classification of cell line as Low(1), Medium(2) or High(3) sensitivity to compound",[1]; Breast HS-578T CL5006,2
same,"classification of cell line as Low(1), Medium(2) or High(3) sensitivity to compound",[1]; Breast MCF7(I) (CL5001),3
same,"classification of cell line as Low(1), Medium(2) or High(3) sensitivity to compound",[1]; Breast MCF7/ADRr (CL5002),1
same,"classification of cell line as Low(1), Medium(2) or High(3) sensitivity to compound",[1]; Breast MDA-MB-231 CL5005,2
same,"classification of cell line as Low(1), Medium(2) or High(3) sensitivity to compound",[1]; Breast MDA-MB-435 (CL5011),2
same,"classification of cell line as Low(1), Medium(2) or High(3) sensitivity to compound",[1]; Breast MDA-N CL5012,2
same,"classification of cell line as Low(1), Medium(2) or High(3) sensitivity to compound",[1]; Breast T-47D (CL5014),2
same,"classification of cell line as Low(1), Medium(2) or High(3) sensitivity to compound",[1]; CNS SF-268 CL12014,2
same,"classification of cell line as Low(1), Medium(2) or High(3) sensitivity to compound",[1]; CNS SF-295 CL12015,2
same,"classification of cell line as Low(1), Medium(2) or High(3) sensitivity to compound",[1]; CNS SF-539 CL12016,2
same,"classification of cell line as Low(1), Medium(2) or High(3) sensitivity to compound",[1]; CNS SNB-19 (CL12002),2
same,"classification of cell line as Low(1), Medium(2) or High(3) sensitivity to compound",[1]; CNS SNB-75(I) CL12005,2
same,"classification of cell line as Low(1), Medium(2) or High(3) sensitivity to compound",[1]; CNS U251(I) CL12009,2
same,"classification of cell line as Low(1), Medium(2) or High(3) sensitivity to compound",[1]; Colon COLO-250 CL4010,2
same,"classification of cell line as Low(1), Medium(2) or High(3) sensitivity to compound",[1]; Colon HCC-2998 (CL4002),2
same,"classification of cell line as Low(1), Medium(2) or High(3) sensitivity to compound",[1]; Colon HCT-15 CL4015,2
same,"classification of cell line as Low(1), Medium(2) or High(3) sensitivity to compound",[1]; Colon HCT-116 (CL4003),2
same,"classification of cell line as Low(1), Medium(2) or High(3) sensitivity to compound",[1]; Colon HT29(I) CL4001,2
same,"classification of cell line as Low(1), Medium(2) or High(3) sensitivity to compound",[1]; Colon KM12 (CL4017),2
same,"classification of cell line as Low(1), Medium(2) or High(3) sensitivity to compound",[1]; Colon SW-620 (CL4009),2
same,"classification of cell line as Low(1), Medium(2) or High(3) sensitivity to compound",[1]; Leukemia CCRF-CEM(I) (CL7003),3
same,"classification of cell line as Low(1), Medium(2) or High(3) sensitivity to compound",[1]; Leukemia HL-60(I) (CL7008),3
same,"classification of cell line as Low(1), Medium(2) or High(3) sensitivity to compound",[1]; Leukemia K562(I) CL7005,2
same,"classification of cell line as Low(1), Medium(2) or High(3) sensitivity to compound",[1]; Leukemia MOLT-4 (CL7006),3
same,"classification of cell line as Low(1), Medium(2) or High(3) sensitivity to compound",[1]; Leukemia RPMI-8226(I) (CL7010),2
same,"classification of cell line as Low(1), Medium(2) or High(3) sensitivity to compound",[1]; Leukemia SR CL7019,3
same,"classification of cell line as Low(1), Medium(2) or High(3) sensitivity to compound",[1]; Melanoma LOX IMVI CL10001,2
same,"classification of cell line as Low(1), Medium(2) or High(3) sensitivity to compound",[1]; Melanoma M14 (CL10014),2
same,"classification of cell line as Low(1), Medium(2) or High(3) sensitivity to compound",[1]; Melanoma MALME-3M CL10002,2
same,sensitivity class NSCLC NCI-H23(I) CL1001,"[1]; cell line NSCLC NCI-H23(I), CL1001",2
same,sensitivity class NSCLC NCI-H332M CL1017,"[1]; cell line NSCLC NCI-H332M, CL1017",1
same,sensitivity class NSCLC NCI-H460 CL1021,"[1]; cell line NSCLC NCI-H460, CL1021",3
same,sensitivity class NSCLC NCI-H522 CL1003,"[1]; cell line NSCLC NCI-H522, CL1003",2
same,sensitivity class Ovarian IGROV1 CL6010,"[1]; cell line Ovarian IGROV1, CL6010",2
same,sensitivity class Ovarian OVCAR-3 CL6001,"[1]; cell line Ovarian OVCAR-3, CL6001",2
same,sensitivity class Ovarian OVCAR-4 CL6002,"[1]; cell line Ovarian OVCAR-4, CL6002",1
same,sensitivity class Ovarian OVCAR-5 CL6003,"[1]; cell line Ovarian OVCAR-5, CL6003",2
same,sensitivity class Ovarian OVCAR-8 CL6005,"[1]; cell line Ovarian OVCAR-8, CL6005",2
same,sensitivity class Ovarian SK-OV-3 CL6011,"[1]; cell line Ovarian SK-OV-3, CL6011",2
same,sensitivity class Prostate DU-145 CL11003,"[1]; cell line Prostate DU-145, CL11003",2
same,sensitivity class Prostate PC-3(I) CL11001,"[1]; cell line Prostate PC-3(I), CL11001",2
same,sensitivity class Renal 786-O CL9018,"[1]; cell line Renal 786-O, CL9018",2
same,sensitivity class Renal A498 CL9013,"[1]; cell line Renal A498, CL9013",2
same,sensitivity class Renal ACHN CL9023,"[1]; cell line Renal ACHN, CL9023",2
same,sensitivity class Renal CAKI-1 CL9015,"[1]; cell line Renal CAKI-1, CL9015",3
same,sensitivity class Renal RXF-393 CL9016,"[1]; cell line Renal RXF-393, CL9016",2
same,sensitivity class Renal SN12C CL9008,"[1]; cell line Renal SN12C, CL9008",2
same,sensitivity class Renal TK10 CL9024,"[1]; cell line Renal TK10, CL9024",2
same,sensitivity class Renal UO-31 CL9004,"[1]; cell line Renal UO-31, CL9004",1
same,-Log (GI50),[2]; Breast BT-549 (CL5013),6.2
same,-Log (GI50),[2]; Breast HS-578T CL5006,6.4
same,-Log (GI50),[2]; Breast MCF7(I) (CL5001),7.4
same,-Log (GI50),[2]; Breast MCF7/ADRr (CL5002),4.6
same,-Log (GI50),[2]; Breast MDA-MB-231 CL5005,6.0
same,-Log (GI50),[2]; Breast MDA-MB-435 (CL5011),5.9
same,-Log (GI50),[2]; Breast MDA-N CL5012,6.0
same,-Log (GI50),[2]; Breast T-47D (CL5014),6.8
same,-Log (GI50),[2]; CNS SF-268 CL12014,6.3
same,-Log (GI50),[2]; CNS SF-295 CL12015,6.8
same,-Log (GI50),[2]; CNS SF-539 CL12016,6.7
same,-Log (GI50),[2]; CNS SNB-19 (CL12002),6.5
same,-Log (GI50),[2]; CNS SNB-75(I) CL12005,6.3
same,-Log (GI50),[2]; CNS U251(I) CL12009,6.8
same,-Log (GI50),[2]; Colon COLO-250 CL4010,6.3
same,-Log (GI50),[2]; Colon HCC-2998 (CL4002),6.2
same,-Log (GI50),[2]; Colon HCT-15 CL4015,5.8
same,-Log (GI50),[2]; Colon HCT-116 (CL4003),6.1
same,-Log (GI50),[2]; Colon HT29(I) CL4001,5.8
same,-Log (GI50),[2]; Colon KM12 (CL4017),6.1
same,-Log (GI50),[2]; Colon SW-620 (CL4009),6.6
same,-Log (GI50),[2]; Leukemia CCRF-CEM(I) (CL7003),7.3
same,-Log (GI50),[2]; Leukemia HL-60(I) (CL7008),7.3
same,-Log (GI50),[2]; Leukemia K562(I) CL7005,6.1
same,-Log (GI50),[2]; Leukemia MOLT-4 (CL7006),7.8
same,-Log (GI50),[2]; Leukemia RPMI-8226(I) (CL7010),6.8
same,-Log (GI50),[2]; Leukemia SR CL7019,7.9
same,-Log (GI50),[2]; Melanoma LOX IMVI CL10001,6.7
same,-Log (GI50),[2]; Melanoma M14 (CL10014),6.2
same,-Log (GI50),[2]; Melanoma MALME-3M CL10002,6.2
same,-Log (GI50),[2]; NCSLC NCI-H522 CL1003,6.3
same,-Log (GI50),[2]; NSCLC NCI-H23(I) CL1001,6.4
same,-Log (GI50),[2]; NSCLC NCI-H332M CL1017,5.5
same,-Log (GI50),[2]; NSCLC NCI-H460 CL1021,7.8
same,-Log (GI50),[2]; Ovarian IGROV1 CL6010,5.8
same,-Log (GI50),[2]; Ovarian OVCAR-3 CL6001,5.8
same,-Log (GI50),[2]; Ovarian OVCAR-4 CL6002,5.3
same,-Log (GI50),[2]; Ovarian OVCAR-5 CL6003,5.8
same,-Log (GI50),[2]; Ovarian OVCAR-8 CL6005,6.3
same,-Log (GI50),[2]; Ovarian SK-OV-3 CL6011,6.4
same,-Log (GI50),[2]; Prostate DU-145 CL11003,6.5
same,-Log (GI50),[2]; Prostate PC-3(I) CL11001,6.0
same,-Log (GI50),[2]; Renal 786-O CL9018,6.5
same,-Log (GI50),[2]; Renal A498 CL9013,6.4
same,-Log (GI50),[2]; Renal ACHN CL9023,6.8
same,-Log (GI50),[2]; Renal CAKI-1 CL9015,7.1
same,-Log (GI50),[2]; Renal RXF-393 CL9016,6.3
same,-Log (GI50),[2]; Renal SN12C CL9008,6.5
same,-Log (GI50),[2]; Renal TK10 CL9024,5.8
same,-Log (GI50),[2]; Renal UO-31 CL9004,5.4
